The subject of data set [1] is NCI/ADR-RES. Description: Reversal of P-gp-mediated multidrug resistance in human MCF7/ADR cells assessed as assessed as increase in intracellular adriamycin accumulation at 5 uM incubated 2 hrs before adriamycin challenge by spectrophotometry. The format is cell-based.
For data set [2], the system named is NCI/ADR-RES. Description: Reversal of P-gp-mediated multidrug resistance in human MCF7/ADR cells assessed as modulation factor, ratio of adriamycin IC50 without drug to adriamycin IC50 with drug at 1 uM after 72 hrs by MTT assay. In kind it is cell-based. A general note: Tetrazolium dyes change colour on reduction, which living cells bring about.
In data set [3] the test system is MCF7. Description: Reversal of P-gp-mediated multidrug resistance in human MCF7 cells assessed as assessed as increase in intracellular adriamycin accumulation at 5 uM incubated 2 hrs before adriamycin challenge by spectrophotometry. The format is cell-based.
The test system of data set [4] is NCI/ADR-RES. Description: Reversal of P-gp-mediated multidrug resistance in human MCF7/ADR cells assessed as modulation factor, ratio of adriamycin IC50 without drug to adriamycin IC50 with drug at 25 uM after 72 hrs by MTT assay. The format is cell-based.
In data set [5] the test system is NCI/ADR-RES. Description: Reversal of P-gp-mediated multidrug resistance in human MCF7/ADR cells assessed as modulation factor, ratio of adriamycin IC50 without drug to adriamycin IC50 with drug at 10 uM after 72 hrs by MTT assay. In kind it is cell-based.
Data set [6] deals with NCI/ADR-RES. Description: Inhibition of MDR1 gene expression in human MCF7/ADR cells after 48 hrs by RT-PCR analysis. In kind it is functional, cell-based.
Data set [7] is described as follows: Cytotoxicity against human MCF7/ADR cells after 72 hrs by MTT assay. In kind it is functional, cell-based. Conditions: NCI/ADR-RES.
Data set [8] has as its target T1, P-gp (ABCB1) (Homo sapiens, UniProt P08183). Description: Inhibition of P-gp in human Caco-2 cells assessed as decrease in efflux permeability from basolateral to apical side at 50 uM after 120 mins. The format is cell-based.
The target in data set [9] is T1, P-gp (ABCB1). Description: Inhibition of P-gp in human Caco-2 cells assessed as increase in influx permeability from apical to basolateral side at 50 uM after 120 mins. In kind it is cell-based.
The subject of data set [10] is NCI/ADR-RES. In words: Reversal of P-gp-mediated multidrug resistance in human MCF7/ADR cells assessed as enhancement in cytotoxicity of adriamycin. The format is cell-based.
In data set [11] the test system is MCF7. In words: Ratio of IC50 for human MCF7/ADR cells to IC50 for human MCF7 cells. The format is functional.

Calls of active or inactive are those of the source. The rule behind the calls is not given here.

T1 sequence (P08183 whole entry): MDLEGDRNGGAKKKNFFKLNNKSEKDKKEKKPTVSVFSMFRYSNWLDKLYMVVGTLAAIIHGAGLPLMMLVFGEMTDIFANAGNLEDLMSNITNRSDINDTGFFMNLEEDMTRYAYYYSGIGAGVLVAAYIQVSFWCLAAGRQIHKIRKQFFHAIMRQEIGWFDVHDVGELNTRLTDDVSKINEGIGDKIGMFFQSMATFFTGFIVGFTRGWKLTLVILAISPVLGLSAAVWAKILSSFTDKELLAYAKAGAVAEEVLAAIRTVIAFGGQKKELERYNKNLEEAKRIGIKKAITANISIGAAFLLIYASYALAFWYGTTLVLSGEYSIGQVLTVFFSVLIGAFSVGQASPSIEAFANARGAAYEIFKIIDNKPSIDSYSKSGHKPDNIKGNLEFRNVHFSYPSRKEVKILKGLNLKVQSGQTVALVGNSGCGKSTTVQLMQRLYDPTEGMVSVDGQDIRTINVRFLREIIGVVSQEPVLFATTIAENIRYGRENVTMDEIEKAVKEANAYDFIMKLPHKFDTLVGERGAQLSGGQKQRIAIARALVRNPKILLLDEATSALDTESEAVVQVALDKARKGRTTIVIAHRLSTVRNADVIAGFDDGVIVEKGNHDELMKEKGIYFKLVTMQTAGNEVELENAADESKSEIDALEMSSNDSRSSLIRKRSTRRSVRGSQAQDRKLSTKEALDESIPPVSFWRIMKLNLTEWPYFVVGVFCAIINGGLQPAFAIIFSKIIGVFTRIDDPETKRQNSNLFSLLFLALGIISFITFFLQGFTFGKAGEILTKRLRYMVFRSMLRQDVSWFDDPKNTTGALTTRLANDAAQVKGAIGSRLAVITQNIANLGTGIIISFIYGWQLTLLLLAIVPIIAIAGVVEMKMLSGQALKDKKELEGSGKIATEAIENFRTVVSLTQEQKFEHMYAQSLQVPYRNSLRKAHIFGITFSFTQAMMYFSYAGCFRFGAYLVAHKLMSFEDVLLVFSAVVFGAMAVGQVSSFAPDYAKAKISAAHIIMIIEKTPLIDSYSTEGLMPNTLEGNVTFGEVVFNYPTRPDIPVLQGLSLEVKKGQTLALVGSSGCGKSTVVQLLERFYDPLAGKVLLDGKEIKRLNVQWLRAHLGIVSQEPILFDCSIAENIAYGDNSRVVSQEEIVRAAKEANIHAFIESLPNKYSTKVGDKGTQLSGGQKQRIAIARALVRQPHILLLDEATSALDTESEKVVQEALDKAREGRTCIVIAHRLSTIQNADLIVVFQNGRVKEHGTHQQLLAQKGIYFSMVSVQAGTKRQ

Usually IC50 stands for the midpoint of a concentration-inhibition curve. Higher therefore signals weaker potency. In the case of `COc1ccc(-c2oc3c4c(cc(O)c3c(=O)c2O)OC(C)(C)CC4)cc1S(=O)(=O)O`, the outcome in the data set on NCI/ADR-RES [1] and with NCI/ADR-RES [6] was Active. For the same molecule, the Ratio IC50 in the data set with NCI/ADR-RES [2] is 1.33; in the data set with NCI/ADR-RES [4], 2.56; in the data set on NCI/ADR-RES [5], 2.15. In the data set on MCF7 [3], the result was inactive. For the same molecule, the IC50 in data set [7] was over 100 µM.
Broadly, the inhibition is the percentage by which the read-out fell short of the control. As to `COc1ccc(-c2oc3c(CC=C(C)C)c(O)cc(O)c3c(=O)c2O)cc1` [ICARITIN], the result in the data set on NCI/ADR-RES [1] and with NCI/ADR-RES [6] was Active. For the same molecule, the Ratio IC50 with NCI/ADR-RES [2] was 2.48; in the data set with NCI/ADR-RES [4], 12.9; in the data set with NCI/ADR-RES [5] it was 4.96. Besides, the result in the data set on MCF7 [3] was inactive. Besides, the inhibition at 2 h, 50 µM at P-gp (ABCB1) [8] and at P-gp (ABCB1) [9] was 41.9% throughout. This molecule also yielded an IC50 in data set [7] of 52.1 µM. Moreover, the fold change (FC) with NCI/ADR-RES [10] was 10.
Regarding `COc1ccc(-c2oc3c(CCC(C)(C)OC)c(O)cc(O)c3c(=O)c2O)cc1`, in the data set on NCI/ADR-RES [1], the outcome was Active. In addition, the results for the Ratio IC50 with NCI/ADR-RES [2] and in the data set on NCI/ADR-RES [5] were 1.26 and 2.41, respectively. For the same molecule, in the data set with MCF7 [3], the result was inactive. The same molecule showed an IC50 in data set [7] of 20.9 µM. Further, in the data set with NCI/ADR-RES [10], the Activity result was “Dose-dependent effect”.
For the molecule `COc1ccc(-c2oc3c(CC=C(C)C)c(OS(C)(=O)=O)cc(O)c3c(=O)c2OS(C)(=O)=O)cc1`, the outcome in the data set on NCI/ADR-RES [1] was Active. Further, the Ratio IC50 in the data set on NCI/ADR-RES [2] is 1.11; with NCI/ADR-RES [4], 1.46; in the data set on NCI/ADR-RES [5] it was 1.36. In addition, in the data set with MCF7 [3], the outcome was inactive. This molecule yielded a concentration for half-maximal inhibition (IC50) in [7] of 80.8 µM.
For the molecule `COc1ccc(-c2oc3c(CC=C(C)C)c(O)cc(O)c3c(=O)c2O[C@@H]2O[C@@H](C)[C@H](O)[C@@H](O)[C@H]2O)cc1`, in the data set on NCI/ADR-RES [1], the outcome was Active. Further, the Ratio IC50 amounted to 1.28 with NCI/ADR-RES [2], 1.61 in the data set on NCI/ADR-RES [4] and 1.39 with NCI/ADR-RES [5]. Further, the outcome in the data set on MCF7 [3] was inactive. The 50% inhibitory concentration (IC50) in data set [7] is over 100 µM.
With `COc1ccc(-c2oc3c4c(cc(O)c3c(=O)c2OS(C)(=O)=O)OC(C)(C)CC4)cc1`, the result in the data set with NCI/ADR-RES [1] and in the data set with NCI/ADR-RES [6] was Active. Moreover, the Ratio IC50 with NCI/ADR-RES [2] was determined as 1.89; in the data set on NCI/ADR-RES [4], 2.71; in the data set with NCI/ADR-RES [5], 2.34. The outcome in the data set on MCF7 [3] was inactive. For the same molecule, half-maximal inhibition in data set [7] (IC50) was put at 55 µM.
On to `COc1ccc(-c2oc3c4c(cc(O)c3c(=O)c2O)OC(C)(C)CC4)cc1`, for which the outcome in the data set on NCI/ADR-RES [1] and with NCI/ADR-RES [6] was Active. Further, the Ratio IC50 in the data set on NCI/ADR-RES [2] was 2.33; in the data set with NCI/ADR-RES [4], 10.1; with NCI/ADR-RES [5] it was 4.35. The outcome in the data set on MCF7 [3] was inactive. The inhibition at 2 h, 50 µM at P-gp (ABCB1) [8] and on P-gp (ABCB1) [9] was 39.6% throughout. Besides, the IC50 in data set [7] is over 100 µM. The fold change (FC) with NCI/ADR-RES [10] stood at 10.
Turning to `COc1ccc(-c2oc3c(CC=C(C)C)c(O[C@@H]4O[C@H](CO)[C@@H](O)[C@H](O)[C@H]4O)cc(O)c3c(=O)c2O)cc1`, the outcome in the data set on NCI/ADR-RES [1] was Active. Also, the results for the Ratio IC50 in the data set with NCI/ADR-RES [2], in the data set with NCI/ADR-RES [4] and with NCI/ADR-RES [5] were 1.41, 1.62 and 1.49, respectively. Besides, the outcome in the data set with MCF7 [3] was inactive. Moreover, 60.8 µM corresponded to half-maximal inhibition in data set [7] (IC50).
As to `COc1ccc(-c2oc3c4c(cc(O)c3c(=O)c2OS(N)(=O)=O)OC(C)(C)CC4)cc1`, the result with NCI/ADR-RES [1] and with NCI/ADR-RES [6] was Active. The Ratio IC50 in the data set on NCI/ADR-RES [2] is 1.42; in the data set with NCI/ADR-RES [4], 3.65; in the data set with NCI/ADR-RES [5] it was 1.69. The outcome with MCF7 [3] was inactive. The molecule also displayed an IC50 in data set [7] of 92.1 µM.
Regarding `COc1cccc2c1C(=O)c1c(O)c3c(c(O)c1C2=O)C[C@@](O)(C(=O)CO)C[C@@H]3O[C@H]1C[C@H](N)[C@H](O)[C@H](C)O1` [DOXORUBICIN], the “Ratio IC50” value with MCF7 [11] is recorded as 47.7. Also, in [7], the IC50 amounted to 25.3 µM.
In the case of `COc1ccc(-c2oc3c(CC=C(C)C)c(O[C@@H]4O[C@H](CO)[C@@H](O)[C@H](O)[C@H]4O)cc(O)c3c(=O)c2O[C@@H]2O[C@@H](C)[C@H](O)[C@@H](O)[C@H]2O)cc1` [ICARIIN], the result in the data set with NCI/ADR-RES [1] was Active. For the same molecule, the results for the Ratio IC50 with NCI/ADR-RES [2], in the data set with NCI/ADR-RES [4] and in the data set on NCI/ADR-RES [5] were 1.41, 2.03 and 1.59, respectively. In addition, in the data set on MCF7 [3], the outcome was inactive. This molecule also returned a 50% inhibitory concentration (IC50) in [7] of over 100 µM. In the data set with NCI/ADR-RES [10], the Activity result is “Dose-dependent effect”.

For the origin of these results see ChEMBL document CHEMBL1152373, “Synthesis and antimultidrug resistance evaluation of icariin and its derivatives” (Bioorg Med Chem Lett, 2009).
